The values below come from the METLIN SMRT retention time set (Domingo-Almenara et al. 2019).

This data set in a line: gradient 5% acetonitrile 3 min, to 50% in 2 min, to 85% in 15 min, held 3 min, 100 µL/min. The following applies: column: Zorbax Extend-C18 2.1 x 50 mm; eluents: water / acetonitrile, 0.1% formic acid. The method in brief:
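Retention time was recorded from adduct peaks, which were picked computationally and each inspected manually. Pure standards ran in mixtures of ~100 molecules on HPLC coupled to a quadrupole time-of-flight mass spectrometer, in positive and negative ionization mode, through a Zorbax Extend-C18 column (2.1 × 50 mm, 1.8 μm) at 100 μL/min. Eluents were water and acetonitrile, each with 0.1% formic acid.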
`COc1cccc(CNC(=O)Nc2c(-c3ccc(C)cc3)nc3ccccn23)c1` showed an RP-LC retention time of 658 s.
The compound `CNCCCNCc1ccc(-c2ccc(F)c(Cl)c2)o1` displayed an RP-LC retention time of 580 s.
Under `COc1ccc(Cn2c(=O)c3sccc3n(Cc3nc(-c4ccccc4C)no3)c2=O)cc1` stands 1150 s.
Compound `CCOc1nccnc1N1CCC(NC(=O)Cc2cccs2)C1` (stereo unspecified) returned an RP-LC retention time of 921 s.
As for `O=C(CSc1ncccc1-c1noc(C2CCC2)n1)N1CCCCC1`, the RP-LC retention time came to 979 s.
Under `CCC1CCC(c2nnc(-c3ccc([N+](=O)[O-])cc3)o2)CC1` (stereo unspecified) stands 1120 s.
`O=C(CCCc1ccccc1)NCC1CN(c2ccc3c(c2)OCO3)C(=O)O1` (stereo unspecified) gave an RP-LC retention time of 750 s.
Under `O=C(Nc1ccccn1)c1csc2nc(-c3ccc(F)cc3)cn12` stands 808 s.
For `Cc1nc(-c2csc(S(=O)(=O)N3CCC(C(=O)N4CCC(C)CC4)CC3)c2)no1` the value was 903 s.
As to `Cc1cc(OCC(=O)NCc2ccc3c(c2)OCO3)nc(N2CCCCC2)n1`, the RP-LC retention time is 592 s.
`Fc1ccc(CN2CCC(F)(c3nc(-c4cnccn4)no3)CC2)c(Cl)c1` yielded an RP-LC retention time of 712 s.
`O=C(c1cc2ccccc2[nH]1)N1CCN(c2cc(-c3ccc(Cl)cc3)[nH]n2)CC1`: the RP-LC retention time stood at 923 s.
Under `O=C(Cn1cccc1-c1nc(-c2ccc3c(c2)OCO3)no1)N1CCCc2ccccc21` stands 1120 s; under `COCc1nncn1C1CCN(S(=O)(=O)c2cccc(Cl)c2)CC1`, 738 s.
Under `Cc1ccc(C(=O)N2CCC(CC(=O)NCCc3c[nH]c4ccc(Cl)cc34)CC2)cc1` stands 828 s; under `CC(C)C(=O)N1CCOc2ccc(N(C)C)cc2C1`, 575 s; under `O=C(NCCn1c(=O)n(Cc2ccccc2)c2cccnc21)c1cnccn1`, 680 s.
Under `Cn1ccc2ccn(CC(=O)NCc3ccc(Cl)cc3)c(=O)c21` stands 768 s; under `O=C(NCCCN1CCOCC1)c1ccc2c(c1)NC(=O)C1CCCCN21` (stereo unspecified), 582 s.
`O=C(CCc1c[nH]c2ccccc12)Nc1cccc(-c2nnc3n2CCCC3)c1` registered an RP-LC retention time of 682 s.
Under `O=C(Nc1ccccc1C(F)(F)F)C1CCCN(c2ccc(=O)n(-c3cccc(Cl)c3)n2)C1` (stereo unspecified) stands 971 s.
`CCN(CC)CCCNc1ncnc2c1cnn2-c1ccc(C)c(C)c1`: the RP-LC retention time was found to be 663 s.
`CCOC(=O)c1c(NC(=O)CN2CCN(c3ccccn3)CC2)sc(C(N)=O)c1C` came in with an RP-LC retention time of 599 s.
Under `CCN1C(=O)CCc2cc(NS(=O)(=O)c3ccccc3Cl)ccc21` stands 751 s.
Regarding `CCCCC(=O)N1CC(F)(F)C[C@H]1c1nnc(-c2cnccn2)o1`, the RP-LC retention time turned out to be 715 s.
Under `CC1CCN(C(=O)C2=CN(c3ccc(N(C)C)cc3)c3ccccc3S2(=O)=O)CC1` stands 978 s.
In turn, `CC(C)C(=O)Nc1ccc(-n2cnc(C(=O)N3CCCCCC3)c2)nc1` displayed an RP-LC retention time of 710 s.
Under `Cc1noc(C)c1Cc1ccc(C(=O)NCCc2noc(C3CC3)n2)o1` stands 745 s.
For `Cn1cc(C2c3nccn3CCCN2C(=O)c2cccn2C)cn1` (stereo unspecified) the value was 564 s; for `COc1ccc(NC(=O)C2CCCN(c3nnc4ccccn34)C2)cc1Cl` (stereo unspecified), 702 s.
Under `COc1cccc(-n2ccc(=O)c(-c3nc(-c4ccc(F)cc4)no3)n2)c1` stands 898 s.
`COc1ccc(-c2noc(-c3ccc(NCCCN4CCC(C)CC4)nc3)n2)cc1`: the RP-LC retention time is 666 s.
For `COc1ccc(-c2noc(CS(=O)(=O)c3ccc(C)cc3)n2)cc1OC` the value was 990 s; for `O=C(Nc1ccc(N2CCN(c3ccccc3)C2=O)nc1)c1ccncc1`, 689 s; for `Cc1ccc(S(=O)(=O)N(C)CC2CCOC2)cc1F` (stereo unspecified), 849 s.
For `O=C(Nc1ccccc1)N1CCc2[nH]cnc2C1c1ccccc1` (stereo unspecified) the value was 625 s.
`CCCN1C(=O)c2c(C(=O)NCc3ccccc3Cl)ncn2CC1(C)C(=O)NC1CCCC1` (stereo unspecified): the RP-LC retention time was found to be 868 s.
Under `COc1ccc(C(=O)N2CC3CN(S(=O)(=O)c4ccc(OC)cc4)CC(C2)O3)cc1` stands 769 s; under `COc1ccccc1-c1noc2ncnc(N3CCN(c4ccccn4)CC3)c12`, 646 s.
For `Cc1cc(-c2nnc(-c3ccc(F)cc3)o2)c(C)n1CC(=O)Nc1ccccc1F` the value was 959 s.
Compound `Cc1ccc(NC(=O)c2cccn2Cc2noc(C)n2)c(Br)c1` had an RP-LC retention time of 942 s.
Under `O=C(NCCCn1nc(-c2ccncc2)ccc1=O)C1c2ccccc2Oc2ccccc21` stands 629 s; under `O=C(c1cc2ccccc2o1)N1CCN(C(=O)C2COc3ccccc3O2)CC1` (stereo unspecified), 829 s.
Under `CCCNC(=O)C1CCCN(c2ccc(SCC(=O)Nc3cc(C)ccc3C)nn2)C1` (stereo unspecified) stands 656 s; under `CCOC(=O)CCNC(=O)N1c2ccccc2CC1c1nc(C2CC2)no1` (stereo unspecified), 853 s; under `Cc1nnc(-n2cccc2)s1`, 733 s.
`COc1cc(N)c(Cl)cc1C(=O)OCCN1CCCCC1` gave an RP-LC retention time of 629 s.
On to `CCOC(=O)c1cccc(NC(=O)N2CCN(c3nc4ccccc4n3C)CC2)c1`, for which the RP-LC retention time was 644 s.
For `CN(C)c1cccc(C(=O)N2CCN(c3cc(-c4ccc(Cl)cc4)[nH]n3)CC2)c1` the value was 820 s; for `Cc1nc(C)c(C(=O)Nc2nc(-c3ccc(-c4ccccc4)cc3)cs2)s1`, 1210 s.
For `COC[C@@H]1CN(S(=O)(=O)c2ccc(F)cc2)C[C@H]1c1ccccn1` the value was 745 s; for `COCCC1CCN(C(=O)COc2ccc(Cl)cc2)CC1`, 849 s; for `COc1ccccc1-c1nc(-c2ccc3nnn(C(C)C)c3c2)no1`, 962 s.
`O=C(NC1CC1)c1ccc(OCC2CCCN2C(=O)C2CCC2)cc1` (stereo unspecified) displayed an RP-LC retention time of 741 s.
Regarding `Cc1cc(N2CCN(C(=O)CCc3ccccc3)CC2)nc2nncn12`, the RP-LC retention time worked out at 616 s.
Compound `O=C(Nc1ccc(C2(C(=O)NCC3CCCO3)CC2)cc1)c1ccc(Br)cc1` (stereo unspecified) gave an RP-LC retention time of 828 s.
As for `CC(C)NC(=O)Cn1c(=O)cc(-c2nc(C3CC3)no2)c2ccccc21`, the RP-LC retention time is 806 s.
Consider `c1cn(-c2cc(NC3CCCCC3)ncn2)cn1`, for which the RP-LC retention time stood at 617 s.
The compound `O=[N+]([O-])c1ccc2nc(N3CCNCC3)ccc2c1` returned an RP-LC retention time of 641 s.
For `COc1ccc(S(=O)(=O)N2CCC(n3cnnc3-c3ccccc3)CC2)cc1Cl` the value was 815 s.
For `CCc1nn2c(CNC(=O)c3cccc(F)c3)c(-c3ccccc3)nc2s1` the value was 909 s; for `Cc1noc([C@@H]2CN(C(=O)c3ccoc3C)C[C@H]2CO)n1`, 610 s.
With `CCn1cc2nc(SCc3cc(F)cc(F)c3)n(Cc3ccccc3F)c(=O)c2n1`, the RP-LC retention time was 1150 s.
The compound `Cn1c(=O)c2nc(SCCC(=O)Nc3c(F)cccc3F)n(C)c2n(C)c1=O` showed an RP-LC retention time of 706 s.
`Cc1cc(S(=O)(=O)N2CCCC2c2nc(-c3cccc(Cl)c3)no2)ccc1F` (stereo unspecified): the RP-LC retention time turned out to be 1240 s.
Under `COc1ccccc1N1CCN(CCCNc2c(C)c(=O)n(C)c(=O)n2C)CC1` stands 646 s; under `CC(C)NC(=O)c1cccc(N2C(=O)NC3CC2(C)Oc2ccc(Br)cc23)c1` (stereo unspecified), 793 s; under `CCn1cc(-c2nc(C)c(C(=O)NCc3ccccc3F)s2)c2cccnc21`, 1090 s.
The compound `O=C(CCc1nnc2c3cc(-c4ccc(F)cc4)nn3ccn12)N1CCN(c2ccccn2)CC1` yielded an RP-LC retention time of 611 s.
For `Cc1csc(-n2nc(C)c(CC(=O)Nc3ccccc3F)c2C)n1` the value was 938 s; for `O=C(NCc1csc(-c2ccccc2)n1)C1CCN(C(=O)Nc2ccc(F)cc2F)CC1`, 784 s; for `N#Cc1ccc(C(=O)Nc2cnc(-c3ccc(Cl)cc3)nc2)cc1`, 1070 s.
Compound `Cc1ccc2c(Nc3ccc4c(c3)OCCO4)c(C(=O)N3CCOCC3)cnc2n1` registered an RP-LC retention time of 577 s.
Compound `COc1ccc(-c2noc(C3CCCN3C(=O)c3ccc(Cl)cc3OC)n2)cc1OC` (stereo unspecified) had an RP-LC retention time of 934 s.
`COC(=O)c1c(C(=O)OC)c2c3ccccc3ccn2c1C(=O)OC`: the RP-LC retention time came to 916 s.
With `COc1ccccc1NC(=O)c1cc2c(s1)CN(C(C)C)C2`, the RP-LC retention time was found to be 614 s.
For `O=S(=O)(Cc1ccccc1)N1CCC2(CC1)CC(OCc1ccccc1)CCO2` (stereo unspecified) the value was 1080 s; for `COc1ccc(OC)c(CNC(=O)C2c3ccccc3C(=O)N3CCc4ccccc4C23)c1` (stereo unspecified), 867 s.
Turning to `CCCN1C(=O)CCc2cc(NC(=O)c3cc4ccccc4[nH]3)ccc21`, the RP-LC retention time came out at 882 s.
`COCc1cc2nn(CC(=O)Nc3ccc(C)cc3F)c(=O)n2c(-c2ccccc2)n1` yielded an RP-LC retention time of 858 s.
For `COC(=O)c1ccc(C(=O)NCC(O)c2cccc3ccccc23)cc1` (stereo unspecified) the value was 771 s.
